Experimental data reported in US20120165304A1, “6,7,8,9-Tetrahydro-5H-1,4,7,10a-tetraaza-cyclohept[f]indene derivatives, pharmaceutical compositions containing these compounds, their use and processes for preparing them” (BOEHRINGER INGELHEIM INTERNATIONAL GMBH, priority 2008, published 2012).

Biological target: human 5-HT2C receptor (Homo sapiens, UniProt P28335, I156V/I160V/N158S)
Test: cell-based

Sequence of human 5-HT2C receptor (P28335 33-458 I156V/N158S/I160V limits assumed): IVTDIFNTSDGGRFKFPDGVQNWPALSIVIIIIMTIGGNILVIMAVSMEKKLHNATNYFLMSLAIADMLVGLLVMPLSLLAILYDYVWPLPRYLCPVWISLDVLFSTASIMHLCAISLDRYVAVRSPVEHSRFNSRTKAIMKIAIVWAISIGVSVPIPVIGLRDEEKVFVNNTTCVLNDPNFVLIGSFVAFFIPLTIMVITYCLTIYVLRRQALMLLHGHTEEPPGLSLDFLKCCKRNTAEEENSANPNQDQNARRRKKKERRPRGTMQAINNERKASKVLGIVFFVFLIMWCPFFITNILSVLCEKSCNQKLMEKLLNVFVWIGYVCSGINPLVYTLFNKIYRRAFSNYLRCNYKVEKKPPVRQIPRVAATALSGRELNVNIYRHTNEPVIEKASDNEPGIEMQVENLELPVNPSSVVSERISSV

| SMILES | EC50 [nM] |
| --- | --- |
| c1ccc(CC2CN(c3c4c(nc5ccnn35)CCNCC4)C2)nc1 [Example 18, 10-(3-Pyridin-2-ylmethyl-azetidin-1-yl)-6,7,8,9-tetrahydro-5H-1,4,7,10a-tetraaza-cyclohepta[f]indene] | 451 |
| CC(C)CCN(C)C(=O)C1CN(c2c3c(nc4ccnn24)CCNCC3)C1 [Example 31.74] | 175 |
| O=C(C1CN(c2c3c(nc4ccnn24)CCNCC3)C1)N1CCC(c2ccccc2F)C1 (stereo not shown) [Example 31.116] | 60 |
| Cc1ccc2c(c1)CCCN2C(=O)C1CN(c2c3c(nc4ccnn24)CCNCC3)C1 [Example 31.190] | 4 |
| COc1ccc(CN(C)C(=O)C2CN(c3c4c(nc5ccnn35)CCNCC4)C2)cc1 [Example 31.26] | 29 |
| c1ccc(OC2CN(c3c4c(nc5ccnn35)CCNCC4)C2)nc1 [Example 20.6] | 38 |
| COc1ccc(OC2CN(c3c4c(nc5c(C)cnn35)CCNCC4)C2)cc1 [Example 27.2] | 55 |
| CC(=O)N1CCN(C(=O)C2CN(c3c4c(nc5ccnn35)CCNCC4)C2)CC1 [Example 37.36] | 10 |
| O=C1CCCN1c1ccc(OC2CN(c3c4c(nc5ccnn35)CCNCC4)C2)c(Cl)c1 [Example 35.26] | 115 |
| Fc1ccc(C(F)(F)F)cc1OC1CN(c2c3c(nc4ccnn24)CCNCC3)C1 [Example 35.36] | 90 |
| FC(F)(F)c1ccnc(OC2CN(c3c4c(nc5ccnn35)CCNCC4)C2)c1 [Example 20.9] | 84 |
| CN1CCc2nc3ccnn3c(N3CC(C(=O)N4CCN(C(=O)C5CCCC5)CC4)C3)c2CC1 [Example 36.58] | 447 |
| c1ccc2sc(C3CN(c4c5c(nc6ccnn46)CCNCC5)C3)nc2c1 [Example 12, 10-(3-Benzothiazol-2-yl-azetidin-1-yl)-6,7,8,9-tetrahydro-5H-1,4,7,10a-tetraaza-cyclohepta[f]indene] | 253 |
| CN1CCc2nc3ccnn3c(N3CC(C(=O)N4CCN(C5CC5)CC4)C3)c2CC1 [Example 36.24] | 228 |
| CC1CCCN(C(=O)C2CN(c3c4c(nc5ccnn35)CCNCC4)C2)C1 (stereo not shown) [Example 31.1] | 89 |
| Clc1ccccc1OCC1CN(c2c3c(nc4ccnn24)CCNCC3)C1 [Example 15.6] | 5 |
| O=C(NCCc1ccccc1)C1CN(c2c3c(nc4ccnn24)CCNCC3)C1 [Example 31.21] | 727 |
| CN(C)C1CCN(C(=O)C2CN(c3c4c(nc5ccnn35)CCNCC4)C2)CC1 [Example 37.2] | 1 |
| COc1cc(Cl)ccc1OC1CN(c2c3c(nc4ccnn24)CCNCC3)C1 [Example 35.21] | 75 |
| O=C(C1CN(c2c3c(nc4ccnn24)CCNCC3)C1)N1CCOCC1 [Example 31.17] | 276 |
| Cc1ccc(OC2CN(c3c4c(nc5ccnn35)CCNCC4)C2)c(C)c1 [Example 35.6] | 266 |

| SMILES | EC50 [nM] |
| --- | --- |
| O=C(C1CN(c2c3c(nc4ccnn24)CCNCC3)C1)N1CCN(Cc2ccc(F)cc2)CC1 [Example 37.23] | 6 |
| CC#CCNC(=O)C1CN(c2c3c(nc4ccnn24)CCNCC3)C1 [Example 37.105] | 139 |
| CN(Cc1cccc(Cl)c1)C(=O)C1CN(c2c3c(nc4ccnn24)CCNCC3)C1 [Example 31.39] | 44 |
| CC(C)CCNC(=O)C1CN(c2c3c(nc4ccnn24)CCNCC3)C1 [Example 37.82] | 33 |
| O=C(NC1CCOC1)C1CN(c2c3c(nc4ccnn24)CCNCC3)C1 (stereo not shown) [Example 37.67] | 67 |
| CN1CCc2nc3ccnn3c(N3CC(C(=O)NC4CC5CCC(C4)N5C)C3)c2CC1 (stereo not shown) [Example 36.10] | 374 |
| O=C(C1CN(c2c3c(nc4ccnn24)CCNCC3)C1)N1CCCC(c2ccccc2)(c2ccccc2)C1 [Example 31.221] | 625 |
| O=C(C1CN(c2c3c(nc4ccnn24)CCNCC3)C1)N1CC2CC(c3ccccc3)(C2)C1 [Example 31.232] | 95 |
| Clc1cccc(OC2CN(c3c4c(nc5ccnn35)CCNCC4)C2)c1 [Example 35.50] | 208 |
| c1cc2nc3c(c(N4CCCCC4)n2n1)CCNCC3 [Example 7.2] | 4560 |
| O=C(O)C1CN(c2c3c(nc4ccnn24)CCNCC3)C1 [Example 1.14] | 1340 |
| Brc1ccccc1OC1CN(c2c3c(nc4ccnn24)CCNCC3)C1 [Example 35.7] | 67 |
| CN(C(=O)C1CCCN(c2c3c(nc4ccnn24)CCNCC3)C1)c1ccccc1 (stereo not shown) [Example 1.60] | 1590 |
| c1ccc2c(c1)OCCN2c1c2c(nc3ccnn13)CCNCC2 [Example 1.39] | 2580 |
| FC(F)(F)c1ccnc(OC2CN(c3c4c(nc5ccnn35)CCNCC4)C2)n1 [Example 35.48] | 526 |
| CN(Cc1ccccc1Br)C(=O)C1CN(c2c3c(nc4ccnn24)CCNCC3)C1 [Example 31.78] | 83 |
| CN(Cc1ccc(OC(F)F)cc1)C(=O)C1CN(c2c3c(nc4ccnn24)CCNCC3)C1 [Example 31.161] | 15 |
| O=C(C1CN(c2c3c(nc4ccnn24)CCNCC3)C1)N1CCC(c2cccc(Cl)c2)CC1 [Example 31.111] | 56 |
| CN(Cc1ccccc1)C(=O)C1CN(c2c3c(nc4ccnn24)CCNCC3)C1 [Example 31.19] | 50 |
| CN(C)CCCN(C)C(=O)C1CN(c2c3c(nc4ccnn24)CCNCC3)C1 [Example 37.41] | 8 |
| CN(C(=O)C1CN(c2c3c(nc4ccnn24)CCNCC3)C1)C1CCCC1 [Example 31.12] | 820 |

| SMILES | EC50 [nM] |
| --- | --- |
| O=C(C1CN(c2c3c(nc4ccnn24)CCNCC3)C1)N1CCC2(CC1)Oc1ccccc1O2 [Example 31.186] | 68 |
| O=C(NC1CCCC1)C1CN(c2c3c(nc4ccnn24)CCNCC3)C1 [Example 31.18] | 458 |
| CCn1c(C2CN(c3c4c(nc5ccnn35)CCNCC4)C2)nc2cc(F)ccc21 [Example 34.39] | 666 |
| O=C(C1CN(c2c3c(nc4ccnn24)CCNCC3)C1)N1CCN(c2ccccc2)CC1 [Example 37.34] | 6 |
| O=C(C1CN(c2c3c(nc4ccnn24)CCNCC3)C1)N1CCc2cccc(C(F)(F)F)c2C1 [Example 31.122] | 33 |
| CCCN(C)C(=O)C1CN(c2c3c(nc4ccnn24)CCNCC3)C1 [Example 31.66] | 360 |
| CC(C)N1CCN(C(=O)C2CN(c3c4c(nc5ccnn35)CCN(C)CC4)C2)CC1 [Example 36.6] | 67 |
| O=C(C1CN(c2c3c(nc4ccnn24)CCNCC3)C1)N1CCC(O)(c2ccc(C(F)(F)F)cc2)CC1 [Example 31.227] | 92 |
| CN1C(C)(C)CC(NC(=O)C2CN(c3c4c(nc5ccnn35)CCNCC4)C2)CC1(C)C [Example 37.106] | 9 |
| O=C(C1CN(c2c3c(nc4ccnn24)CCNCC3)C1)N1CCC(O)(c2cccc(C(F)(F)F)c2)CC1 [Example 31.226] | 74 |
| O=C(C1CN(c2c3c(nc4ccnn24)CCNCC3)C1)N1CCc2ccc(C(F)(F)F)cc2C1 [Example 31.107] | 52 |
| Cc1cccc2[nH]c(C3CN(c4c5c(nc6ccnn46)CCNCC5)C3)nc12 [Example 34.5] | 246 |
| COc1cccc(OC2CN(c3c4c(nc5ccnn35)CCNCC4)C2)c1 [Example 35.47] | 66 |
| CC1(C)CCC(NC(=O)C2CN(c3c4c(nc5ccnn35)CCNCC4)C2)CC1 [Example 37.53] | 20 |
| O=C(C1CN(c2c3c(nc4ccnn24)CCNCC3)C1)N1CCC(F)(F)C1 [Example 31.148] | 19 |
| COc1ccc2c(c1)CCN(c1c3c(nc4ccnn14)CCNCC3)C2 [Example 1.23] | 522 |
| O=C(C1CC1)N1CCN(C(=O)C2CN(c3c4c(nc5ccnn35)CCNCC4)C2)CC1 [Example 37.56] | 10 |
| CN(C)CCNC(=O)C1CN(c2c3c(nc4ccnn24)CCNCC3)C1 [Example 37.74] | 29 |
| O=C(NC1CCC(C(F)(F)F)CC1)C1CN(c2c3c(nc4ccnn24)CCNCC3)C1 (stereo not shown) [Example 37.60] | 49 |
| Fc1cccc(Cl)c1OCC1CN(c2c3c(nc4ccnn24)CCNCC3)C1 [Example 15.14] | 2 |
| CN(Cc1ccccn1)C(=O)C1CN(c2c3c(nc4ccnn24)CCNCC3)C1 [Example 31.29] | 87 |

| SMILES | EC50 [nM] |
| --- | --- |
| CC1(NC(=O)C2CN(c3c4c(nc5ccnn35)CCNCC4)C2)CCCC1 [Example 37.80] | 124 |
| O=C(C1CCCCC1)N1CCN(C(=O)C2CN(c3c4c(nc5ccnn35)CCNCC4)C2)CC1 [Example 37.101] | 70 |
| COCC1(CNC(=O)C2CN(c3c4c(nc5ccnn35)CCNCC4)C2)CCCC1 [Example 37.69] | 73 |
| CN(Cc1cccc(Br)c1)C(=O)C1CN(c2c3c(nc4ccnn24)CCNCC3)C1 [Example 31.79] | 20 |
| O=C(C1CN(c2c3c(nc4ccnn24)CCNCC3)C1)N1CC=CC1 [Example 31.183] | 308 |
| Fc1ccccc1OCC1CN(c2c3c(nc4ccnn24)CCNCC3)C1 [Example 15.2] | 3 |
| CN1C2CCC1CC(NC(=O)C1CN(c3c4c(nc5ccnn35)CCNCC4)C1)C2 (stereo not shown) [Example 37.93] | 12 |
| O=C1CN(C(=O)C2CN(c3c4c(nc5ccnn35)CCNCC4)C2)CCN1 [Example 37.12] | 27 |
| c1cc2nc3c(c(N4CCCC4)n2n1)CCNCC3 [Example 7.1] | 764 |
| OCC1CN(c2c3c(nc4ccnn24)CCNCC3)C1 [Example 1.5] | 193 |
| CC1(C(=O)N2CCC3(CCOC3)CC2)CN(c2c3c(nc4ccnn24)CCNCC3)C1 [Example 32.4] | 4270 |
| O=C(C1CN(c2c3c(nc4ccnn24)CCNCC3)C1)N1CCN(C2CCCCC2)CC1 [Example 37.38] | 3 |
| CN1CCN(C(=O)C2CN(c3c4c(nc5ccnn35)CCNCC4)C2)CC1=O [Example 37.100] | 14 |
| CN1CCc2nc3ccnn3c(N3CC(C(=O)NC4CC(C)(C)NC(C)(C)C4)C3)c2CC1 [Example 36.9] | 379 |
| OC1CCCN(c2c3c(nc4ccnn24)CCNCC3)C1 (stereo not shown) [Example 1.38] | 1810 |
| c1ccc(O[C@H]2CCN(c3c4c(nc5ccnn35)CCNCC4)C2)cc1 [Example 1.46] | 582 |
| O=C(CC1CN(c2c3c(nc4ccnn24)CCNCC3)C1)N1CCc2ccccc21 [Example 33.1] | 19 |
| O=C(C1CN(c2c3c(nc4ccnn24)CCNCC3)C1)N1CCN(C2CC2)CC1 [Example 37.32] | 22 |
| Cc1nc(CN(C)C(=O)C2CN(c3c4c(nc5ccnn35)CCNCC4)C2)c(C)o1 [Example 31.58] | 53 |
